logp, Log p and chromatographic logP data for 55 molecules are collected here from patent US20100286173A1 (priority 2008, published 2010).

A short description of this data set: Measurement of logP values by HPLC on reversed phase columns (EEC directive 79/831 Annex V.A8). The note with it: pH 2.7, 0.1% formic acid in water / acetonitrile gradient 10% to 95%; for chromatographic logP: reversed phase HPLC column. The class given is physicochemical.

Where two headings read alike, the source gives them in different places.

For the molecule `CCCCCC(=O)Nc1cccc(CON=C(c2ccc(C(F)(F)F)cc2F)c2nnnn2C)n1` [Example 26], the logp came out at 4.29.

For the molecule `CCCCCOC(=O)Nc1cccc(CON=C(c2cc(C)ccc2Cl)c2nnnn2C)n1` [Example 83], the logp amounted to 4.54.

As to `CC(C)CC(=O)Nc1cccc(CON=C(c2cc(C(F)(F)F)ccc2Cl)c2nnnn2C)n1` [Example 63], the logp was 3.96.

For the molecule `CCCCCC(=O)Nc1cccc(CON=C(c2cccc(C)c2F)c2nnnn2C)n1` [Example 103], the logp is recorded as 3.96.

For `CCCCCC(=O)Nc1cccc(CON=C(c2ccc(C)cc2Cl)c2nnnn2C)n1` (single isomer, unassigned) [Example 113], the logp is reported as 4.16.

On to `CCCCCOC(=O)Nc1cccc(CON=C(c2ccc(F)c(C(F)(F)F)c2)c2nnnn2C)n1` [Example 82], for which the logp is reported as 4.86.

In turn, `Cc1cc(C(=NOCc2cccc(NC(=O)CC(C)C)n2)c2nnnn2C)ccc1F` [Example 37] yielded a logp of 3.67.

`Cc1cc(C(=NOCc2csc(C#CCCCc3ccccc3)n2)c2nnnn2C)ccc1F` [Example 155] yielded a Log p of 5.32.

`CCCCCOC(=O)Nc1cccc(CON=C(c2cc(C)cc(C)c2)c2nnnn2C)n1` [Example 39] showed a logp of 4.86.

As for `CCCC(=O)Nc1nc(CON=C(c2ccc(F)c(Oc3ccccc3)c2)c2nnnn2C)cs1` [Example 146], the Log p was found to be 3.35.

`CCCCCC(=O)Nc1cccc(CON=C(c2cc(C)ccc2F)c2nnnn2C)n1` [Example 29] showed a logp of 3.83.

`CCCCCC(=O)Nc1cccc(CON=C(c2ccc(F)c(C)c2)c2nnnn2C)n1` [Example 119]: the logp is recorded as 4.11.

In turn, `COc1ccc(CC(=O)Nc2cccc(CON=C(c3ccc(F)c(C)c3)c3nnnn3C)n2)cc1` [Example 59] yielded a logp of 3.68.

With `Cn1nnc(C(=NOCc2csc(N)n2)c2ccc(F)c(Oc3ccccc3)c2)n1` [Example 140], the Log p was found to be 2.23.

Regarding `CCCCCC(=O)Nc1cccc(CON=C(c2cc(C)ccc2Cl)c2nnnn2C)n1` (single isomer, unassigned) [Example 117], the logp stood at 4.19.

Molecule `Cn1nnnc1C(=NOCc1cccc(N)n1)c1cc(C(F)(F)F)ccc1Cl` [Example 133] registered a Log p of 1.72.

As for `Cc1ccc(C(=NOCc2cccc(NC(=O)CC(C)C)n2)c2nnnn2C)c(Cl)c1` [Example 46], the logp came out at 3.73.

`CCCCCOC(=O)Nc1cccc(CON=C(c2cc(C)ccc2Cl)c2nnnn2C)n1` [Example 84] displayed a logp of 4.73.

Molecule `Cc1ccc(Cl)c(C(=NOCc2cccc(NC(=O)CC(C)C)n2)c2nnnn2C)c1` [Example 35] yielded a logp of 3.73.

`Cc1cc(C(=NOCc2cccc(NC(=O)CCOc3ccccc3)n2)c2nnnn2C)ccc1F` [Example 57] registered a logp of 3.87.

With `CCCCCOC(=O)Nc1cccc(CON=C(c2ccc(C)cc2Cl)c2nnnn2C)n1` [Example 91], the logp turned out to be 4.7.

As for `Cc1ccc(C(=NOCc2cccc(NC(=O)CC(C)C)n2)c2nnnn2C)cc1C(F)(F)F` [Example 43], the logp is listed as 4.16.

As to `Cc1cc(F)cc(C(=NOCc2cccc(NC(=O)CC(C)C)n2)c2nnnn2C)c1` (single isomer, unassigned) [Example 157], the Log p was determined as 3.71.

Turning to `CCCCCC(=O)Nc1cccc(CON=C(c2ccc(C)cc2F)c2nnnn2C)n1` [Example 115], the logp is listed as 3.92.

On to `CC(C)C(=O)Nc1cccc(CON=C(c2ccc(C(F)(F)F)cc2F)c2nnnn2C)n1` (single isomer, unassigned) [Example 28], for which the logp is reported as 3.48.

In the case of `Cc1ccc(C(F)(F)F)cc1C(=NOCc1csc(N)n1)c1nnnn1C` [Example 130], the logp was determined as 1.92.

Regarding `CCCCCC(=O)Nc1cccc(CON=C(c2cc(C(F)(F)F)ccc2Cl)c2nnnn2C)n1` [Example 106], the logp came out at 4.39.

With `COc1cccc(CC(=O)Nc2cccc(CON=C(c3ccc(F)c(C)c3)c3nnnn3C)n2)c1` [Example 60], the logp is recorded as 3.72.

Molecule `Cc1ccc(C(=NOCc2cccc(NC(=O)CC(C)C)n2)c2nnnn2C)cc1F` [Example 32] returned a logp of 3.71.

In turn, `CCC#Cc1nc(CON=C(c2ccc(F)c(C)c2)c2nnnn2C)cs1` [Example 156] yielded a Log p of 4.09.

In turn, `COc1ccccc1CC(=O)Nc1cccc(CON=C(c2ccc(F)c(C)c2)c2nnnn2C)n1` [Example 61] showed a logp of 3.9.

Consider `Cn1nnnc1C(=NOCc1cccc(N)n1)c1cccc(C(F)(F)F)c1F` [Example 143, 6-{[({[2-fluoro-3-(trifluoromethyl)phenyl](1-methyl-1H-tetrazol-5-yl)methylidene}amino)oxy]methyl}pyridin-2-amine], for which the chromatographic logP (read-out: Log p) was 1.75.

On to `CCCCC(=O)Nc1ccnc(CON=C(c2ccc(C)c(C(F)(F)F)c2)c2nnnn2C)n1` [Example 90], for which the logp is reported as 3.94.

The molecule `CCCCCOC(=O)Nc1cccc(CON=C(c2ccc(OC(F)(F)F)cc2C)c2nnnn2C)n1` (single isomer, unassigned) [Example 97] registered a logp of 5.11.

For `Cc1ccc(C(=NOCc2nccc(N)n2)c2nnnn2C)cc1C(F)(F)F` [Example 128, 2-{[({(1-methyl-1H-tetrazol-5-yl)[4-methyl-3-(trifluoromethyl)phenyl]methylidene}amino)oxy]methyl}pyrimidin-4-amine], the chromatographic logP was 1.7.

As to `CC(C)CC(=O)Nc1cccc(CON=C(c2ccc(Cl)c(C(F)(F)F)c2)c2nnnn2C)n1` [Example 70], the logp is 4.26.

`Cc1ccc(C(F)(F)F)cc1C(=NOCc1cccc(NC(=O)CC(C)C)n1)c1nnnn1C` [Example 67] registered a logp of 3.62.

Regarding `Cc1nc(N)cc(CON=C(c2ccc(F)c(Oc3ccccc3)c2)c2nnn(C)n2)n1` [Example 139], the Log p is 1.73.

In the case of `CC(C)CC(=O)Nc1cccc(CON=C(c2ccc(C(F)(F)F)c(Cl)c2)c2nnnn2C)n1` [Example 71], the logp is listed as 4.29.

`CCCCCOC(=O)Nc1cccc(CON=C(c2cc(C)ccc2F)c2nnnn2C)n1` [Example 121] returned a logp of 4.19.

Molecule `CCCCCC(=O)Nc1cccc(CON=C(c2cc(C)cc(F)c2)c2nnnn2C)n1` [Example 123] gave a logp of 4.14.

`CCCCCOC(=O)Nc1cccc(CON=C(c2ccc(C)cc2Cl)c2nnnn2C)n1` [Example 92] returned a logp of 4.54.

The molecule `CCCCCC(=O)Nc1cccc(CON=C(c2ccc(C)c(C(F)(F)F)c2)c2nnnn2C)n1` [Example 118] yielded a logp of 4.56.

In turn, `Cn1nnnc1C(=NOCc1csc(NC(=O)C2CC2)n1)c1ccc(F)c(Oc2ccccc2)c1` [Example 148] yielded a Log p of 3.48.

Molecule `C=CCCOC(=O)Nc1cccc(CON=C(c2ccc(F)c(C)c2)c2nnnn2C)n1` [Example 55] came in with a logp of 3.92.

As for `Cn1nnnc1C(=NOCc1csc(N)n1)c1ccc(F)c(Oc2ccccc2)c1` [Example 149], the Log p amounted to 2.25.

As for `Cc1cc(C)cc(C(=NOCc2cccc(N)n2)c2nnnn2C)c1` [Example 125], the logp was 1.81.

With `Cc1ccc(F)c(C(=NOCc2cccc(NC(=O)CC(C)C)n2)c2nnnn2C)c1` [Example 48], the logp is 3.53.

`CCCCCOC(=O)Nc1cccc(CON=C(c2ccc(OC(F)(F)F)cc2C)c2nnnn2C)n1` (single isomer, unassigned) [Example 96] yielded a logp of 4.89.

`Cc1cc(C(=NOCc2csc(NCCC3CCCCC3)n2)c2nnnn2C)ccc1F` [Example 151]: the Log p is 4.36.

`Cc1nc(N)cc(CON=C(c2ccc(F)c(Oc3ccccc3)c2)c2nnnn2C)n1` [Example 129] yielded a logp of 1.75.

Molecule `CC#CCOC(=O)Nc1cccc(CON=C(c2ccc(F)c(C)c2)c2nnnn2C)n1` [Example 101] gave a logp of 3.67.

In turn, `CCCCCOC(=O)Nc1cccc(CON=C(c2ccc(C(F)(F)F)cc2F)c2nnnn2C)n1` (single isomer, unassigned) [Example 24] had a logp of 4.73.

The molecule `Cc1cc(C(=NOCc2csc(N)n2)c2nnnn2C)ccc1F` [Example 163] returned a Log p of 1.75.

`CCCCCC(=O)Nc1cccc(CON=C(c2cccc(C(F)(F)F)c2F)c2nnnn2C)n1` [Example 27, N-(6-{[({[2-fluoro-3-(trifluoromethyl)phenyl](1-methyl-1H-tetrazol-5-yl)methylidene}amino)oxy]methyl}pyridin-2-yl)hexanamide]: the chromatographic logP turned out to be 4.16.
